Results on six compounds are retold here after patent publication US6447817B1, “Anti-inflammatory analgesic” (Nippon Hypox Laboratories Inc., priority 1998, dated 2002).

The assay concerns serotonin swelling of rat. The assay can be described thus: Inhibition of serotonin swelling of rat sole after application to the skin. Conditions: for Average swelling ratio (%) / Average inhibition ratio (%): rat right sole, measured 30 min after injection; for Average swelling ratio (%): 1.5 g of 2% xanthan gum solution with 3% test sample applied 2 h before serotonin injection, control 30; for Average inhibition ratio (%): 3% test sample applied 2 h before serotonin injection. It counts as in vivo. The procedure:
For clarifying the effect of the anti-inflammation analgesic preparation of the present invention, the effect of the anti-inflammation analgesic preparation on inhibition of serotonin swelling is shown below.
1.5 Grams of a 2% xanthan gum solution containing a test sample of having a concentration of 3% was applied to a portion ranging from a right femoral portion to a sole portion (bottom portion) of a rat. Two hours after the test sample was applied, a solution of 3 μg/ml of serotonin in 0.1 ml of a saline solution was hypodermically injected into the sole of the right foot. Thirty minutes after the injection of the inflammatory substance, the swelling of the sole of the right leg was measured to determine a swelling ratio. When serotonin as an inflammatory substance involving the generation of a pain is injected, a swelling involving a pain is caused.

Each structure is given as a SMILES string. “Also recorded” adds a separate entry of the source.

Consider `O=C(O)COc1nn(Cc2ccccc2)c2ccccc12` [Bendazac, reference compound], for which the “Average swelling ratio (%)” value was determined as 30% and the “Average inhibition ratio (%)” value came out at 0%. Also, the “Inhibition of serotonin swelling (in words)” value (rat, 3% test sample applied to skin) is “failed to inhibit the above inflammation reaction; also recorded: showed no effect on the swelling and was ineffective”.

With `CCCCCCCCCCCCOC1=C(O)C(=O)O[C@@H]1[C@@H](O)CO` [L-3-0-dodecylascorbic acid], the “Average swelling ratio (%)” value was 14% and the “Average inhibition ratio (%)” value is 54%.

In the case of `CCCCCCCCCCCCC(=O)COC1=C(O)C(=O)O[C@@H]1[C@@H](O)CO` [L-3-0-dodecylcarbonylmethylascorbic acid, L-3-0-dodecylcarbonyl-methylascorbic acid], the “Average swelling ratio (%)” value turned out to be 13% and the “Average inhibition ratio (%)” value was 57%.

Turning to `CCOC1=C(O)C(=O)O[C@@H]1[C@@H](O)CO` [L-3-0-ethylascorbic acid], the “Average swelling ratio (%)” value was 12% and the “Average inhibition ratio (%)” value turned out to be 76%.

`CCCCCCCCCCCCCCCCCCOC(=O)COC1=C(O)C(=O)O[C@@H]1[C@@H](O)CO` [L-3-0-octadecyloxycarbonylmethylascorbic acid]: the “Average swelling ratio (%)” value worked out at 15% and the “Average inhibition ratio (%)” value is 50%.

For `O=C1O[C@H]([C@@H](O)CO)C([O-])=C1OP(=O)(O)O.O=C1O[C@H]([C@@H](O)CO)C([O-])=C1OP(=O)(O)O.[Mg+2]` [L-ascorbic acid-2-phosphoric acid ester magnesium salt], the “Average swelling ratio (%)” value amounted to 28% and the “Average inhibition ratio (%)” value was 7%.
